Measurements taken from US11944601B2, “Applications of ellagic acid in preparation of immunomodulatory medicines for treatment of neuromyelitis optica or immune rejection after skin transplantation” (priority 2022, dated 2024).

Tests used:
Treg cells = assay: Treg polarization in vitro, flow cytometry; assay type: cell-based, mice; settings: 0.5-2 μM, 3 days
Protocol: (§1) Single-cell suspension of spleen isolated from normal female C57BL/6 mice (aged 8-10 weeks) was co-cultured with anti-CD3 (0.5 μg/mL), anti-CD28 (1 μg/mL), TGF-β (2 ng/mL), IL-6 (20 ng/mL), IL-1 β (10 ng/mL), anti-IL-4 (10 μg/mL) and anti-IFN-γ (10 μg/mL) for 3 days to induce differentiation into Th17 cells. Cells were cultured with anti-CD3 (0.5 μg/mL), anti-CD28 (1 μg/mL), TGF-β (2 ng/mL) and IL-2 (10 ng/ml) for 3 days to induce differentiation into Treg cells. Cytokines were detected by flow cytometry.

EAE mice [1] = assay: EAE mice, clinical scores; assay type: in vivo; settings: for EAE clinical score / course of disease: administered from day 0 of immunization (prevention stage); for EAE clinical score / course of disease / EAE clinical score / development of EAE: EA intraperitoneally, URA 25 mg/kg
Th17 cells = assay: Th17 polarization of spleen cells in vitro, flow cytometry; assay type: cell-based, mice; settings: for polarization of Th17 cells: 3 days; for polarization of Th17 cells / Th1 cells (IFN-γ): flow cytometry; for inhibitory effect on Th17 / IL17 at 5 μM compared with the lower concentration: 5 μM vs 2.5 μM (EA) or 1 μM (URA)
Protocol: as §1

EAE mice [2] = assay: EAE mice, CNS-infiltrating mononuclear cells by flow cytometry; assay type: in vivo
Protocol: EAE mice were randomly divided into EA groups and URA groups. EA groups were divided into blank control group, fingolimod (FTY-720) positive control group (0.1 mg/kg) and EA administration group (0.1 mg/kg). URA groups were divided into blank control group and URA administration group (25 mg/kg). To induce EAE, mice were immunized at two sites on the back with 200 μg of myelin oligodendrocyte glycoprotein peptide 35-55 (MOG35-55) (Genescript) in 200 μL of emulsion containing 50% complete Freund's adjuvant with 5 mg/ml Mycobacterium tuberculosis H37Ra (Difco). All mice were i.p. injected with 200 ng pertussis toxin (Sigma-Aldrich) in PBS on days 0 and 2 postimmunization (p.i.). Ellagic acid (EA) and its metabolic derivative URA were purchased from Ark Pharm, Inc and respectively administered to EAE mice on the day of immunization, the 11th day p.i and the 17th day p.i.
Mice were sacrificed at day 20 p.i. Approximately 0.5 cm of the lumbosacral enlarged spinal cord was removed from the sacrificed mouse and fixed in 4% (w/v) paraformaldehyde. […]
For flow cytometry surface marker staining, the cells were incubated with surface-stained fluorescent microsphere-coupled antibodies or isotype control antibodies on ice for 30 min. […] Data were further detected by flow cytometry and analyzed by Flowjo software (Treestar, Ashland, OR).

EAE mice [3] = assay: EAE mice, spinal cord pathological sections (H&E, LFB, MBP staining); assay type: in vivo; settings: for demyelination of white matter of spinal cord (LFB) / infiltration of spinal cord inflammatory cells (H&E): day 20 p.i., EA lumbosacral, URA cervical enlargement of spinal cord
[4] = system: skin transplantation model; assay: Skin transplantation model, H&E staining of skin grafts; assay type: in vivo; settings: BALB/c skin on C57BL/6 mice
IFN-γ and IL-17 = assay: Skin transplantation model, ELISA of splenocyte culture supernatant; assay type: in vivo, mice
Protocol: (§2) The donor BALB/c mice were sacrificed, the dorsal hair was removed with a shaver. Appropriately sized skin grafts were cut, peeled off, washed, immersed in sterilized saline containing antibiotics for 5 minutes, and finally stored on ice for backup. The receptor C57BL/6 mice were intraperitoneally injected with 0.5% of pentobarbital sodium injection according to the body weight of 0.15 mL/20 g. After the mice were anesthetized, they were fixed on a surgical plate, the mid-dorsal parts of the mice body slightly to the lefts were selected as operation areas. Mice were shaved and disinfected with 75% alcohol to prepare graft beds. The prepared donor skin sheet was placed on the predetermined transplantation bed of recipient mice and then flattened. The skin patch was sutured to the transplant bed by discontinuous suture with 6-0 sutures. The recipient mice were administered therapeutic medicines from the day of surgery. […] The spleens of the receptor mice were taken on the 7th day to isolate single cells for flow cytometer detection. The supernatant of splenocytes was collected for enzyme-linked immunosorbent assay (ELISA).

colitis mice = assay: DSS-induced acute colitis in mice; assay type: in vivo; settings: 100 mg/kg/d, 2.5% DSS 7 days
Protocol: The mice were randomly divided into control group and EA treatment group. 2.5% (w/v) of dextran sodium sulfate (DSS) was added to drinking water continuously for 7 days to induce acute colitis, and mice in the treatment group were fed 100 mg/kg/d EA. During the experiment, mice were weighed regularly every day and the percentage change was calculated. In addition, the feces characteristics of mice were observed every day and divided into three grades according to the methods of Berberat et al. 1: normal, 2: increased stool viscosity and easily dispersed, 3: watery diarrhea. Moreover, hidden blood of mouse feces was measured by pyramidon method. If the mouse feces contained reddish-brown or bright red blood visible to the naked eye, it was determined as fecal blood. Finally, the disease activity index (DAI) of mice was calculated according to the scoring criteria of Berberat et al. The whole segment of colon from anus to the end of cecum of mice was taken, the length was measured and photographed for recording.

[5] = system: Th1, Th17 and Treg cells in the peripheral immune system; assay: Skin transplantation model, spleen cells of receptor mice by flow cytometry; assay type: in vivo; settings: day 7, cultured 72 hours
Protocol: as §2

[6] = system: NMO-IgG induced cerebral lesion in mice; assay: NMO-IgG induced cerebral lesion in mice, AQP4 and MBP staining of brain slices; assay type: in vivo; settings: 2 mg/kg/d from three days before surgery; fifth day of modeling
Source text: Female C57BL/6 mice aged 6-8 weeks were purchased from Air Force Military Medical University (Xi'an, China). Mice were fed under standard light and temperature conditions. All experimental procedures and protocols were approved by the institutional animal ethics Committee of Shaanxi Normal University and carried out in accordance with the approved institutional guidelines and regulations.
WO mice were randomly divided into control group and EA group. In order to induce WO, mice were first anesthetized with 10% (w/v) of chloral hydrate and installed on a brain stereotactic apparatus (RWD Life Science), then the mouse scalp was cut along the midline, a small hole with a diameter of 1 mm was drilled on the skull 2 mm on the right side of the anterior fontanelle, and finally 5 μL microinjector (Hamilton) was inserted 3 mm deep and 2 μL of NMO-IgG and 3 μL of complement were injected at a rate of 1 μL/min. EA (2 mg/kg/d) and control solvents were administered to WO mice three days before surgery.
The mice were sacrificed on the fifth day of modeling. The brain tissue was removed from the mice and fixed in 4% (w/v) of paraformaldehyde. The frozen sections were stained with AQP4 and MBP.

[7] = system: IL-17 family-related genes; assay: RT-qPCR of Th17-related genes in naïve CD4+ T cells under Th17 polarizing conditions; assay type: cell-based, mice; settings: 4 h, vs PBS
Protocol: Total RNA was extracted by using RNAprep Pure Cell/Tissue Kit (TIANGEN) and then reverse transcribed with Hiscript QRT Supermix (Vazyme) according to the manufacturer's instructions. mRNA expression was determined by real-time quantitative PCR using 2×ChamQ™ SYBR® qPCR Master Mix (Vazyme). Data was quantitatively analyzed on Roche Molecular Biochemicals Light Cycler Software Version 3.5. Mouse GAPDH gene was used as endogenous control for sample normalization.

[8] = administered from onset stage (day 11 p.i.)
[9] = administered from peak period (day 17 p.i.)

O=c1oc2c(O)c(O)cc3c(=O)oc4c(O)c(O)cc1c4c23 [EA, ellagic acid]
polarization of naïve CD4+T towards Treg (Treg cells): promote the polarization of naïve CD4+T towards Treg in a dose-dependent manner
therapeutic effect in EAE compared with fingolimod (FTY-720) (EAE mice [1]; EA 0.1 mg/kg vs FTY-720 0.1 mg/kg): equivalent
EAE clinical score / course of disease (EAE mice [1]): inhibited the course of disease
EAE clinical score / development of EAE (EAE mice [1]; [8]): significantly inhibited
EAE clinical score / development of EAE (EAE mice [1]; [9]): significantly inhibited
progress of EAE disease (EAE mice [1]; oral administration from day 0 of immunization, dosage 250 times that of injection): effectively alleviate the progress of the disease
polarization of Th17 cells (Th17 cells; 2.5 μM): significantly inhibited
inhibitory effect on Th17 / IL17 at 5 μM compared with the lower concentration (Th17 cells): better
polarization of Th17 cells (Th17 cells; 5 μM): significantly inhibited
absolute number of CD45+, CD45+CD4+, CD4+IL-17+, CD4+IFN-γ+ and CD4+GM-CSF+ cells infiltrating into the CNS (EAE mice [2]): significantly reduced
absolute number of pro-inflammatory microglia and macrophages infiltrating into CNS (CD45high+CD11b+, CD45low+CD11b+, CD11b+MHC II+, CD11b+TNF-α+, CD11b+Nos2+) (EAE mice [2]): decreased
demyelination of white matter of spinal cord (LFB) (EAE mice [3]): significantly attenuated
infiltration of spinal cord inflammatory cells (H&E) (EAE mice [3]): significantly attenuated
infiltration of inflammatory cells in the grafted skin [4]: significantly inhibited
content of IFN-γ in supernatant of splenocytes (IFN-γ and IL-17): significantly reduced
content of IL-17 in supernatant of splenocytes (IFN-γ and IL-17): significantly reduced
effect on IFN-γ and IL-17 content compared with CsA (IFN-γ and IL-17): better than that of CsA
colon length (colitis mice): significantly restored
DAI score (colitis mice; vs DSS control group): decreased significantly
percentage of weight loss (colitis mice; vs DSS control group): significantly lower
Th1 inflammatory cells [5]: significantly inhibited
Th17 inflammatory cells [5]: significantly inhibited
proportion of anti-inflammatory cell Treg [5]: increased
AQP4 protein loss rate [6]: lower than that in control group
degree of demyelination (MBP) [6]: decreased

O=c1oc2cc(O)ccc2c2ccc(O)cc12 [URA, urolithin A]
EAE clinical score / course of disease (EAE mice [1]): reduced the clinical scores
EAE clinical score / development of EAE (EAE mice [1]; [8]): reduced the clinical scores
EAE clinical score / development of EAE (EAE mice [1]; [9]): reduced the clinical scores
dose dependence of inhibition on IFN-γ (Th17 cells; 1 μM and 5 μM): no dose-dependent inhibition
polarization of Th17 cells (Th17 cells; 1 μM): significantly inhibited
Th1 cells (IFN-γ) (Th17 cells; 1 μM): significantly inhibited
inhibitory effect on Th17 / IL17 at 5 μM compared with the lower concentration (Th17 cells): more significantly
polarization of Th17 cells (Th17 cells; 5 μM): significantly inhibited
Th1 cells (IFN-γ) (Th17 cells; 5 μM): significantly inhibited
expression level of IL-17 family-related genes [7]: decreased
expression of Foxp3 [7]: promoted the expression of Foxp3 to a certain extent
proportion of intact myelin sheath in the spinal cord (MBP) (EAE mice [3]; compared with control mice): significantly increased
demyelination of white matter of spinal cord (LFB) (EAE mice [3]): significantly relieved
infiltration of spinal cord inflammatory cells (H&E) (EAE mice [3]): significantly relieved
